Assay results: article PMC5039424 (2016)

Test system: yeast tRNA^Phe (RNA, tRNA) GCGGAUUUAGCUCAGUUGGGAGAGCGCCAGACUGAAGAUCUGGAGGUCCUGUGUUCGAUCCACAGAAUUCGCACCA
Assay: inhibition of lead(II)-induced cleavage, gel
Conditions: 10 mM Mg2+, 1 mM NH4+, 0.5 mM Pb2+; 50% inhibition of Pb2+ cleavage; 50 mM Tris-HCl pH 7.5; RNA 2.4 μM

## Cc1cc2nc3ccc(N(C)C)cc3[s+]c2cc1N
  Ki: 70 ± 20 µM
